# Reference: patent US20110077270A1, “Compositions and Methods for Treating Ocular Inflammation with Lower Risk of Increased Intraocular Pressure” (priority 2009, published 2011)
# Where “and” joins values, the source holds several entries; their conditions need not be identical. Equal values may be shown once.
# Columns and labels:
# [1] = system: rabbit paracentesis model; assay: Clinical evaluation (slit lamp clinical score), rabbit paracentesis model; type: in vivo; parameters: key to Clinical Score −180 min / Clinical Score −5 min / Clinical Score +115 min: 0: normal; 1: discrete dilatation of iris and conjunctival vessels; 2: moderate dilatation of iris and conjunctival vessels; 3: intense iridal hyperemia with flare in the anterior chamber; 4: intense iridal hyperemia with flare in the anterior chamber and presence of fibrinous exudates; settings: for Clinical Score −5 min: 5 min before first paracentesis; for Clinical Score −5 min / Clinical Score +115 min / Clinical Score −180 min: individual eye; for Clinical Score +115 min: 5 min before second paracentesis; for Clinical Score −180 min: basal
# [2] = system: protein concentration in the aqueous humor; assay: Protein measurement in aqueous humor, rabbit paracentesis model; type: in vivo; settings: for Protein level in aqueous humor, Mean / Protein level in aqueous humor: second paracentesis; for Protein level in aqueous humor, Mean: group mean; for Protein level in aqueous humor: individual eye
# Description: (§1) Each rabbit was placed in a restraint device and tagged with the alphanumeric code. The formulations were instilled (50 μl) into the conjunctival sac of both eyes 180, 120, 90 and 30 min before the first paracentesis; then 15, 30, 90 min after the first paracentesis. To perform the first paracentesis the animals were anaesthetized by intravenous injection of 5 mg/kg Zoletil® (Virbac; 2.5 mg/kg tiletamine HCl and 2.5 mg/kg zolazepam HCl) and one drop of local anesthetic (Novesina®, Novartis) was administered to the eye. Anterior chamber paracentesis was performed with a 26 G needle attached to a tuberculin syringe; the needle was introduced into the anterior chamber through the cornea, taking care not to damage the tissues. Two hours after the first paracentesis, the animals were sacrificed with 0.4 ml Tanax® (Intervet International B.V.) and the second paracentesis was performed. About 100 μl of aqueous humor were removed at the second paracentesis. Aqueous humor was immediately split in four aliquots and stored at −80° C. until analysis. Then both eyes were enucleated and the iris-ciliary body was carefully excised, placed in polypropylene tubes, and stored at −80° C. until analysis.
# For protein concentration determination in the aqueous humor we used the Protein Quantification Kit (Fluka; Cat. No. 77371; Lot. No. 1303129). Five microliters of aqueous humor were diluted to 100 μl with water. Twenty microliters of samples and of standards were load into a 96-well plate and recorded in a plate layout. Samples were treated following the assay procedure described in the kit. A microplate reader (GDV, Italy; model DV 990 B/V6) set at 670 nm was used for making the calibration and analyzing the samples.
# [3] = system: MPO activity in iris-ciliary body; assay: Myeloperoxidase (MPO) activity in iris-ciliary body, rabbit paracentesis model; type: in vivo; settings: for MPO Unit/g: iris-ciliary body samples collected after the second paracentesis, individual eye samples; for MPO activity in iris-ciliary body, Mean: after second paracentesis, group mean
# Description: as §1
# The activity of MPO was measured as previously described by Williams et al.[5] The iris-ciliary bodies were carefully dried, weighed and immersed in 1 ml of hexa-decyl-trimethyl-ammonium bromide solution. Then, the samples were sonicated for 10 sec on ice by a ultrasound homogenizer (HD 2070, Bandelin electronic), freeze-thawed three times, sonicated for 10 sec and centrifuged at 14,000 g for 10 min to remove cellular debris. An aliquot of the supernatant ([…] was diluted to 3 ml with the o-dianisidine 2HCl/H2O2 solution. The change in absorbance at 460 nm was continuously monitored for 5 min by a spectrophotometer (UV/Vis Spectrometer Lambda EZ 201; Perkin Elmer). The slope of the line (Δ/min) was determined for each sample and used to calculate the number of units of MPO in the tissue as follows:
# were ε=11.3 mM^−1. Values were expressed as units of MPO/g of tissue.
# [4] = system: myocilin mRNA in monkey TM cells; assay: Myocilin mRNA expression in monkey TM cells (qRT-PCR); type: cell-based, rhesus monkeys (Macaca mulatta); settings: for EC50: expression of myocilin mRNA, weighted averages, two dose-response studies each using two monkey TM cell strains
# Description: For each study, up to nine TM cell strains, each derived from an individual monkey, were tested separately. Cells were thawed and seeded into 12- or 48-well clusters (Falcon, BD Biosciences; 150,000 and 30,000 cells/well, respectively) in proliferation medium. When cells were 75% to 90% confluent proliferation medium was replaced by a 5:4 mixture of HESFM and Dulbecco's MEM, respectively, supplemented with 10% FBS, with added taurine, ascorbic acid phosphate, glutathione, and antibiotic as for proliferation medium (above), and with 2.72 g/L glucose and 1.72 g/L fructose. At confluence, the medium was changed to Dulbecco's MEM, containing 10% FBS^40, ascorbic acid phosphate, antibiotic, 2.72 g/L glucose and 1.72 g/L fructose. Cells were maintained as stable, confluent monolayers in this latter medium for 4 to 7 days before experimental treatments commenced.
# After quantification of purified total RNA (Quant-iT RNA Assay kit, Molecular Probes, Eugene, Oreg.), equivalent amounts of this RNA were apportioned to generate first-strand cDNAs for each treatment sample, using random primers, (Affinity Script, Stratagene, La Jolla, Calif.). Oligonucleotide myocilin primers, designed based on the cynomolgus MYOC gene, and fluorescent Taqman probe (Applied Biosystems, Foster City, Calif.) were used for PCR amplification. Equal amounts of total RNA-equivalent mass (approximate range […]) reactant cDNA were added to the PCR Master Mix (Stratagene) and myocilin primers/Taqman probe. Amplification was performed in a thermocycler (Mx3005P, Stratagene), with an initial denaturation step at 95° C. for 10 min, followed by 40 cycles of 95° C. for 15 sec and 60° C. for 1 min for extension. Every run included standard controls (i.e., either without reverse transcriptase or lacking template). Relative quantities of myocilin mRNA abundance were determined using differences in threshold cycles (“Ct”) between vehicle control and drug treatments. Each sample was analyzed in triplicate wells, and the corresponding values averaged for further quantitative analysis. Myocilin mRNA abundance, expressed in proportion to vehicle control-treated samples, was calculated using the Mx3005P software.
# Data underwent Box-Cox transformations for one- or two-way analysis of variance (ANOVA), followed by the Tukey-Kramer test, using JMP software (SAS, Cary, N.C.). The specific transformations used for analyses are mentioned in the figure legends. For each set of triplicate samples from the individual monkey TM cell strains tested, Western blot densitometry values for myocilin protein detected in CM (as geometric means), and relative abundance of myocilin mRNA (as geometric means), were plotted as a function of drug concentrations. P-values less than 0.05 were considered statistically significant. […]
# [5] = 0.1% topical formulation, +115 min
# [6] = 0.1% topical formulation, −5 min
# [7] = 0.1% topical formulation, −180 min (basal)
# [8] = 0.1% topical formulation, listed as BOL
# [9] = 0.5% topical formulation, listed as BOL
# [10] = 0.5% topical formulation, +115 min
compound,measurement,setting,value
"C[C@@H]1C[C@H]2[C@@H]3CCC4=CC(=O)C=C[C@]4(C)[C@@]3(F)[C@@H](O)C[C@]2(C)[C@@]1(O)C(=O)CO [Dex, dexamethasone, reference compound]",Clinical Score −5 min,[1]; 0.1% topical formulation,0 (6×) and 1 (2×)
same,Clinical Score +115 min,[1]; 0.1% topical formulation,1 (6×) and 3 (2×)
same,Percentage of eyes with clinical score 1,[1]; [5],75%
same,Percentage of eyes with clinical score 3,[1]; [5],25%
same,Clinical Score −180 min,[1]; 0.1% topical formulation,0
same,Percentage of eyes with clinical score 0,[1]; [6],75%
same,Percentage of eyes with clinical score 1,[1]; [6],25%
same,Percentage of eyes with clinical score 0,[1]; [7],100%
same,"Protein level in aqueous humor, Mean",[2]; 0.1% topical formulation,33.457 mg/mL
same,Protein level in aqueous humor,[2]; 0.1% topical formulation,31.31 mg/mL and 31.81 mg/mL and 35.95 mg/mL and 37.15 mg/mL and 32.12 mg/mL and 32.40 mg/mL
same,MPO Unit/g,[3]; 0.1% Dex,0.71 Unit/g and 0.60 Unit/g and 1.32 Unit/g and 0.48 Unit/g (2×) and 0.39 Unit/g and 0.45 Unit/g and 0.51 Unit/g
same,"MPO activity in iris-ciliary body, Mean",[3]; 0.1% topical formulation,0.618 MPO Unit/g
same,EC50,[4]; Primates,14.7 ± 1.27 nM
Cc1ccc2c(NCC(O)(CC(C)(C)c3cc(F)cc4c3OCC4)C(F)(F)F)cccc2n1 (centres unmarked) [BOL-303242-X],Clinical Score −5 min,[1]; 0.1% topical formulation,0
same,Clinical Score +115 min,[1]; [8],2 (6×) and 3 (2×)
same,Percentage of eyes with clinical score 2,[1]; [5],75%
same,Percentage of eyes with clinical score 3,[1]; [5],25%
same,Clinical Score −180 min,[1]; 0.1% topical formulation,0
same,Percentage of eyes with clinical score 0,[1]; [6],100%
same,Percentage of eyes with clinical score 0,[1]; [7],100%
same,Clinical Score −5 min,[1]; 0.5% topical formulation,0
same,Clinical Score +115 min,[1]; [9],2 (5×) and 1 (3×)
same,Percentage of eyes with clinical score 1,[1]; [10],37.5%
same,Percentage of eyes with clinical score 2,[1]; [10],62.5%
same,Clinical Score −180 min,[1]; 0.5% topical formulation,0
same,Percentage of eyes with clinical score 0,"[1]; 0.5% topical formulation, −5 min",100%
same,Percentage of eyes with clinical score 0,"[1]; 0.5% topical formulation, −180 min (basal)",100%
same,Clinical Score −5 min,[1]; 1% topical formulation,0
same,Clinical Score +115 min,[1]; 1% topical formulation,2
same,Percentage of eyes with clinical score 2,"[1]; 1% topical formulation, +115 min",100%
same,Clinical Score −180 min,[1]; 1% topical formulation,0
same,Percentage of eyes with clinical score 0,"[1]; 1% topical formulation, −5 min",100%
same,Percentage of eyes with clinical score 0,"[1]; 1% topical formulation, −180 min (basal)",100%
same,"Protein level in aqueous humor, Mean",[2]; 0.1% topical formulation,33.667 mg/mL
same,Protein level in aqueous humor,[2]; [8],34.87 mg/mL and 34.41 mg/mL and 31.14 mg/mL and 22.82 mg/mL and 29.46 mg/mL and 31.69 mg/mL and 35.70 mg/mL and 49.25 mg/mL
same,"Protein, p vs CTR",[2]; 0.5% topical formulation,< 0.05
same,"Protein level in aqueous humor, Mean",[2]; 0.5% topical formulation,28.844 mg/mL
same,Protein level in aqueous humor,[2]; [9],33.98 mg/mL and 33.65 mg/mL and 19.99 mg/mL and 27.11 mg/mL and 19.72 mg/mL and 36.35 mg/mL and 27.71 mg/mL and 32.24 mg/mL
same,"Protein level in aqueous humor, Mean",[2]; 1% topical formulation,21.435 mg/mL
same,Protein level in aqueous humor,"[2]; 1% topical formulation, listed as BOL",20.99 mg/mL and 21.48 mg/mL and 15.11 mg/mL and 20.28 mg/mL and 20.94 mg/mL and 21.89 mg/mL and 20.03 mg/mL and 30.76 mg/mL
same,MPO Unit/g,"[3]; 0.1% BOL, listed as BOL",1.04 Unit/g and 1.00 Unit/g and 1.14 Unit/g and 1.06 Unit/g and 1.22 Unit/g and 0.61 Unit/g and 1.05 Unit/g and 0.65 Unit/g
same,"MPO activity in iris-ciliary body, Mean",[3]; 0.1% topical formulation,0.971 MPO Unit/g
same,Activity in rabbit paracentesis model (preliminary conclusion),"[3]; 0.1%, 0.5%, 1% topical formulations, overall conclusion across biomarkers",active in this model
same,MPO Unit/g,"[3]; 0.5% BOL, listed as BOL",0.85 Unit/g and 0.93 Unit/g and 0.79 Unit/g and 1.03 Unit/g and 0.75 Unit/g and 0.74 Unit/g and 0.54 Unit/g and 0.58 Unit/g
same,"MPO activity in iris-ciliary body, Mean",[3]; 0.5% topical formulation,0.775 MPO Unit/g
same,MPO Unit/g,"[3]; 1% BOL, listed as BOL",0.66 Unit/g and 0.68 Unit/g and 0.49 Unit/g and 0.40 Unit/g and 0.34 Unit/g and 1.02 Unit/g and 0.31 Unit/g and 0.43 Unit/g
same,"MPO activity in iris-ciliary body, Mean",[3]; 1% topical formulation,0.542 MPO Unit/g
same,Myocilin mRNA abundance compared with DEX,[4]; 3 to 300 nM,significantly lower mRNA abundance values at all doses compared with DEX
same,Emax at 0.3 µM,"[4]; Primates, read-out: Maximal efficacy for myocilin mRNA expression, relative to DEX, 300 nM, single monkey TM cell strain (FIG. 5)",~67%
same,EC50,[4]; Primates,20.8 ± 2.74 nM
